In PMC10707934, “Design and Synthesis of Novel α-Methylchalcone Derivatives, Anti-Cervical Cancer Activity, and Reversal of Drug Resistance in HeLa/DDP Cells” (Molecules, 2023):

How the values were obtained:
Format in all cases: cell-based, human
[1] = tested on: HeLa/DDP cells; assay: MTT anti-cisplatin-resistant cervical cancer activity, HeLa/DDP; conditions: 48 h
Procedure: (§1) All cell types, at a volume of 200 µL per well, were inoculated in 96-well plates at a density of 2.5 × 10^4 cells / mL and cultured for 24 h in an incubator with 5% CO2 at 37 °C. The old culture medium was replaced with 200 µL of fresh medium per well containing positive compounds, at concentrations of 1, 6.25, 12.5, 25, 50, and 100 μM. After 48 h of culture, 20 µL per well of 5 mg·mL^−1 MTT solution was added. After 4 h of culture, the old solution was discarded, and 150 µL per well of DMSO solution was added. Using an enzyme labeler (Thermo Fisher Scientific, Multiskan GO, Waltham, MA, USA), the plates were shaken for 10 min, OD values were determined at 490 nm, and the inhibition rate was calculated. Non-linear regression fitting of the cell growth rate was carried out using SPSS 23.0, and the IC50 of the compound was calculated. The inhibition rate was calculated using the formula: [(ODempty − ODtest)/(ODempty − ODnegative group)] × 100%, (ODempty blank group absorbance, ODtest absorbance of administration group, ODnegative group without cell culture medium). Each group contained six compound holes, and the experimental results averaged three trials. Complete medium containing only cells was used as the blank control; a complete medium without cells as was used as the negative control; and cisplatin, paclitaxel, and adriamycin were used as the positive controls. The concentration gradient was the same as that used for compounds 3a–3p.
To mitigate the detrimental consequences arising from the fixation of resistance reversal agents, concentrations that yielded a tumor cell proliferation rate reduction of less than 10% were selected. Consequently, the inhibitory efficacy of compound 3k against HeLa/DDP cells was assessed in conjunction with cisplatin at concentrations of 0.25, 0.5, and 1 μM. The experimental procedure employed was akin to that elucidated in Section 3.3.2. The impact of verapamil (6 μM) and 3k (0.25, 0.5, and 1 μM) on P-gp expression was ascertained via Western blot experiments, employing the same methodology delineated in Section 3.3.4.

[2] = tested on: α-tubulin, β-tubulin in HeLa cells; assay: Immunofluorescence assay of microtubules, HeLa; conditions: 24 h, 3k 1, 2, and 4 μM, colchicine and paclitaxel 2.0 μM
Procedure: (§2) The cells were then fixed by adding 400 μL of 4% paraformaldehyde to each well and incubating for 30 min. 0.1% Triton was added at a volume of 400 μL per well and allowed to incubate for 10 min. Following this, goat serum (10%) was added at 400 μL per well and incubated for 40 min. Primary antibodies (α-tubulin, β-tubulin) were then incubated overnight at a temperature of 4 °C. Subsequently, secondary antibodies (α-mouse, β-rabbit) were incubated for 1.5 h. DAPI staining was performed at 400 μL per well for 5 min, followed by a wash with PBS. Cell climbing tablets were removed and inverted onto slides with sealer. Photographs were captured using a fluorescent inverted microscope.

[3] = tested on: α-tubulin, β-tubulin in HeLa/DDP cells; assay: Immunofluorescence assay of microtubules, HeLa/DDP; conditions: 24 h, 3k 1, 2, and 4 μM, paclitaxel 2.0 μM
Procedure: as §2

[4] = tested on: α-/β-tubulins in HeLa cells; assay: Western blot of polymerized and dissociated α-/β-tubulins, HeLa; conditions: 24 h, versus control
Procedure: (§3) HeLa cells were cultured in 60 mm Petri dishes at a density of 1.0 × 10^6 cells per dish and treated with 0.1% DMSO (vehicle), positive control chalcone (20 μM), and different concentrations of compound 3k (2.5, 5, and 10 μM), respectively. Following a 24 and 48 h incubation period, the cells were harvested via centrifugation and subsequently washed twice with PBS that had been chilled to 0 °C. Next, the cells were homogenized using RIPA lysis buffer (Solarbio, Beijing, China) and supplemented with 1% PMSF (MP Biomedicals, 0754-25G, CAS:329-98-6, Santa Ana, CA, USA) and 1% mixed phosphatase inhibitor (Solarbio, Beijing, China). The resulting lysates were then incubated on ice for 30 min, intermittently vortexed every 5 min, and subsequently centrifuged at 12,000 rpm for 20 min to collect the supernatants.
(§4) Subsequently, the protein concentrations were determined utilizing a BCA Protein Assay Kit (Solarbio, China). An equivalent quantity of the proteins (12 μg) was fractionated via 8–12% sodium dodecyl sulfate–polyacrylamide gel electrophoresis (SDS-PAGE) and transferred onto nitrocellulose membranes (Amersham Biosciences, Amersham, UK). Following this, the membranes were obstructed with 5% nonfat dried milk in TBS containing 1% Tween-20 for a duration of 2 h at ambient temperature and were subjected to overnight incubation with specific primary antibodies (CST, Boston, MA, USA) at 4 °C. Following three washes in TBST, the membranes were subjected to incubation with the suitable HRP-conjugated secondary antibodies at ambient temperature for a duration of 2 h. The blots were subsequently visualized using enhanced chemiluminescence (Biosharp, Shanghai, China) and detected utilizing a PE 0723 imager (ProteinSimple, Silicon Valley, CA, USA). Each experiment was conducted in triplicate at minimum and analyzed employing Image J software (V1.8.0.112). β-actin(ab198991) rabbit mAb, goat anti-rabbit IgG (H + L) HRP—#S0001 (Affinity). Bax (ab289364), Bcl-2 (ab218123), MDR1/ABCB1 (E1Y7B) rabbit mAb #13342 (CST).
(§5) Polymerized and free microtubule proteins were extracted using the methods described in references, respectively. Following drug intervention, the cells were subjected to two washes with preheated microtubule protein buffer MTSB at 37 °C. Subsequently, 70 μL of MTSB was added, and the cells were lysed for 10 min at 37 °C in a constant temperature chamber shielded from light. The cells were then scraped with a spatula and centrifuged at 14,000 r/min for 10 min at room temperature. The resulting supernatant, which represented the free state microtubule protein suspension, was subsequently removed. The remaining precipitate was treated with RIPA lysis solution, followed by lysis on ice for a duration of 30 min. Subsequently, centrifugation was performed at a temperature of 4 °C and a speed of 12,000 revolutions per minute for a duration of 20 min. The resulting supernatant was collected as a suspension of polymerized microtubule protein. The Western blotting procedure was the same as in Section 3.3.4. α-Tubulin (DM1A) Mouse mAb#3873 (CST), β-Tubulin (D2N5G) Rabbit mAb #15115 (CST), CoraLite488-conjugated Goat Anti-Mouse lgG(H+L) (Proteintech); CoraLite488-conjugated Goat Anti-Rabbit lgG(H+L) (Proteintech); β-actin(ab198991) rabbit mAb, Goat Anti-Mouse IgG H&L (HRP) (ab6789); Goat anti-Rabbit IgG (H+L) HRP—#S0001 (Affinity).

[5] = tested on: α-/β-tubulins in HeLa/DDP cells; assay: Western blot of polymerized and dissociated α-/β-tubulins, HeLa/DDP; conditions: 24 h, versus control
Procedure: as §3, §4, §5

[6] = tested on: HeLa cells; assay: MTT anti-proliferation assay, HeLa; conditions: Homo sapiens, 48 h, mean ± SD
Procedure: as §1, with “3a–3p. […]” for “3a–3p.”

CC(=O)O[C@H]1C(=O)[C@@]2(C)[C@H]([C@H](OC(=O)c3ccccc3)[C@]3(O)C[C@H](OC(=O)[C@H](O)[C@@H](NC(=O)c4ccccc4)c4ccccc4)C(C)=C1C3(C)C)[C@]1(OC(C)=O)CO[C@@H]1C[C@@H]2O [Paclitaxel, paclitaxel]
resistance index (RI) ([1]; HeLa/DDP versus parental HeLa): 5.66
IC50 ([1]; Homo sapiens, HeLa/DDP, MTT, mean ± SD): 130 ± 5.84 µM
microtubule immunofluorescence (α green, β red) [2]: fluorescence intensity of microtubules surrounding the cells decreased or vanished
microtubule immunofluorescence (α green, β red) [3]: no significant alteration in the fluorescence intensity of the microtubules surrounding the cells
expression of dissociated state α and β microtubule proteins ([4]; 3k 4 μM, colchicine 2 μM, paclitaxel 2.0 μM): significantly decreased
expression of α and β microtubule proteins in the polymerized state ([4]; 3k 2 and 4 μM, colchicine and paclitaxel 2.0 μM): significantly enhanced
expression of dissociated state α and β microtubule proteins ([5]; 3k 4 μM, colchicine and paclitaxel 2.0 μM): minimal impact
expression of polymerized state α and β microtubule proteins ([5]; positive drugs 2.0 μM): did not yield a significant impact
IC50 [6]: 23 ± 1.33 µM
